According to paper PMC9458095, “In Vitro Evaluation of In Silico Screening Approaches in Search for Selective ACE2 Binding Chemical Probes” (Molecules, 2022):
Like-named read-outs stand apart in the source and are kept apart here.

Key:
[1] = target: T1, ACE2 (Homo sapiens, UniProt Q9BYF1); assay: ACE2 inhibitor screening kit (Abcam ab273373), fluorescence enzymatic assay, MCA-based peptide substrate; assay type: biochemical; conditions: for inhibition at 20 µM: 20 µM final concentration, n = 1, 25 µL, read-out: Inhibition% (primary screen hits)
T1 construct: purchased Abcam ab273373
T1 sequence (Q9BYF1 18-805): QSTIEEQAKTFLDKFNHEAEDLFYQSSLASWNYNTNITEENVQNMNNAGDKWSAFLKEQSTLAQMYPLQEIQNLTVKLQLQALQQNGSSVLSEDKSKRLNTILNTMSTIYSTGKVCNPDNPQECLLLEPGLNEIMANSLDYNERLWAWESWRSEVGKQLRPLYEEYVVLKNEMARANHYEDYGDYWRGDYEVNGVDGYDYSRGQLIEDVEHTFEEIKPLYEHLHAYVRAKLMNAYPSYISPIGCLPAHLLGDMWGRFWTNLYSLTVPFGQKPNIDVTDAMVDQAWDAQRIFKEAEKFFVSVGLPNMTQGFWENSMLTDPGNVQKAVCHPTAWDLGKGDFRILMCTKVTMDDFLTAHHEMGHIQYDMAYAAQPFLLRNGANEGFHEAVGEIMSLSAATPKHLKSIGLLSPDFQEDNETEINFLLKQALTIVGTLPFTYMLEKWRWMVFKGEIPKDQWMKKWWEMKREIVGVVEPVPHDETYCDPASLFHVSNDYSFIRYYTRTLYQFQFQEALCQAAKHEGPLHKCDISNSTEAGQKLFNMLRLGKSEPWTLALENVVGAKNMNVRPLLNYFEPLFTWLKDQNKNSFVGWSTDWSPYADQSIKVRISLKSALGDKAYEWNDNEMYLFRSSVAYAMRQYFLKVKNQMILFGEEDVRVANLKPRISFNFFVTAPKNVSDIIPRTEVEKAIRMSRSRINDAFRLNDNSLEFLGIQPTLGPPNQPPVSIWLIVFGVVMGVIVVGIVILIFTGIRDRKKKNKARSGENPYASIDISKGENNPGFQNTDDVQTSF
Text: Despite the commercial availability of ACE2 Inhibitor Screening Kits the optimal HTS protocols are still not published and their validation is still needed. Among available kits the Abcam, ab273373 was used. This assay is based on the ability of active angiotensin-converting enzyme (ACE2) to cleave a synthetic MCA-based peptide substrate (the structure not disclosed by the manufacturer) and release a free fluorophore. The released fluorophore can be easily quantified using a standard fluorescence microplate reader. During this screening campaign, the next milestones were estimated: (i) optimization of the test compounds solutions used volume (without loss of performance and analytical signal recognition); (ii) optimization of reaction volume and concentrations of the reagents; (iii) determination of IC50 for known inhibitor MLN-4760 (EN300-22203532) and reference inhibitor from the kit (the structure not disclosed by manufacturer) in new validated conditions; (iv) primary screening of 577 selected compounds; (v) hit confirmation; (vi) dose-response curve (DRC) of confirmed hits.
The commercial Abcam (ab273373) Angiotensin II Converting Enzyme (ACE2) Inhibitor Screening Kit and 384-well 3544 Corning low volume, black clear bottom plates were used. The reagent preparation was performed in accord with kit instruction. In order to prepare the required enzyme concentration, we dissolved […] of stock enzyme solution (concentration in stock and MW not disclosed) in 198 µL of ACE2 Dilution Buffer (provided by the Manufacturer), then aliquoted the entire volume into 25 µL and frozen at −70 °C. A substrate solution calculated for one assay well contained 0.5 µL of stock Substrate solution and 9.5 µL of ACE2 Assay Buffer, stored at −70 °C. Reference inhibitor from the kit (five µL in stock, structure, and MW not disclosed) was not aliquoted, 50 µL of ACE Assay Buffer should be added directly before the experiment.
Primary screen assay conditions. Volume: 25 µL; Concentrations: enzyme and substrate solutions prepared according to the instructions and further diluted both to 1:2 in the Assay mixture. Assay buffer: provided by the Manufacturer (composition not disclosed, see SI for reference). Compounds: 20 µM final concentrations in the Assay mixture, n = 1. Reference Inhibitors: (1) Ref. inhibitor provided by the Manufacturer, 300 nM, (n = 4); (2) Compound from Enamine library EN300-22203532, 2.5 nM, (n = 4). Temperature: 25 °C. The enzyme solution was added into corresponding plate wells (columns 1–22), and buffer was added into wells corresponding to negative (Enzyme) control (columns 23, 24). Plates were incubated for 15 min at 25 °C. Then Substrate solution was added to all experimental wells. Plates were centrifuged and measurement started in kinetic mode (Exc/Em 320/420 nm). Results processing: two time points were chosen from kinetic curves for all wells and corresponding RFU values were obtained. ΔRFU/Δt were calculated for each curve and % of inhibition values were calculated from the equation: 100%—ΔRFU of sample/ΔRFU of Enzyme control*100%, according to the recommendation of the Manufacturer.
DRC and IC50 calculations. Concentrations: enzyme and substrate solutions were diluted both to 1:2 in the Assay mixture. Assay buffer: provided by the Manufacturer (composition not disclosed). Temperature: 25 °C. Compounds: 2-fold titrated from 100 µM, n = 4. Reference Inhibitors: (1) Ref. inhibitor Abcam 2-fold titrated from 1.5 µM, (n = 4); (2) Ref. inhibitor EN300-22203532, 2-fold titrated from 20 nM, (n = 4). Compounds were incubated with enzyme for 15 min. Plates were measured in kinetic mode (Exc/Em 320/420 nm). […]

[2] = target: human ACE2 (CHEMBL3736); conditions: ChEMBL 26, cited from earlier work
[3] = target: T1, ACE2; assay: ACE2 inhibitor screening kit (Abcam ab273373), fluorescence enzymatic assay, MCA-based peptide substrate; assay type: biochemical; conditions: DRC measured three times each, 3-fold titration, 25 µL, enzyme and substrate 1:2; read-out: IC50 of reference inhibitors in optimized conditions
[4] = dose-response of confirmed hits, as in Figure 10, read-out: IC50(ACE2)
[5] = dose-response, 2-fold titrated, n = 4, 15 min incubation with enzyme, 25 °C, enzyme and substrate 1:2, read-out: IC50 (DRC, Figure 9)

| SMILES | inhibition at 20 µM ([1]; enzyme and substrate 1:2) | IC50 [1, 4] | IC50 [1, 5] | also measured |
| --- | --- | --- | --- | --- |
| CC(NC(=O)CCCCC(=O)O)c1ccc(-c2ccc(N(C)C)cc2)cc1 (centres unmarked) [Compound 1] | 38.8% | 45.8 µM | – | – |
| CC[C@@H](C)[C@H](S)C(=O)N[C@@H](Cc1ccc(OCc2ccc(F)c(F)c2)cc1)C(=O)O [CHEMBL251808, CC[C@@H](C)[C@H](S)C(=O)N[C@@H](Cc1ccc(OCc2ccc(F)c(F)c2)cc1)C(O)=O] | – | – | – | Ki ([2]; known selective ACE2 inhibitors): 0.00085 µM |
| Cc1ccc2nc(-c3ccc(NC(=O)CCC(=O)O)cc3)sc2c1 [Compound 2, Cc1ccc2nc(sc2c1)-c1ccc(NC(=O)CCC([O-])=O)cc1] | 74.1% | – | 110 µM | – |
| O=C(O)CC(NC(=O)c1ccc(-c2ccc(F)cc2)o1)c1ccc(F)cc1 (centres unmarked) [Compound 3] | 28.9% | 46.4 µM | – | – |

More lines, main results first:

| inhibition at 20 µM ([1]; enzyme and substrate 1:2) | IC50 [1, 4] | IC50 [1, 5] | SMILES | also measured |
| --- | --- | --- | --- | --- |
| 50.1% | – | 67.3 µM | CCC(C(=O)O)[S+]([O-])Cc1csc(-c2ccc3c(c2)OCO3)n1 (centres unmarked) [Compound 6] | – |
| 29.8% | 53.6 µM | – | O=C(O)CSc1ccc(C(=O)/C=C/c2cnn(-c3ccccc3)c2)cc1F [Compound 5, OC(=O)CSc1ccc(cc1F)C(=O)C=Cc1cnn(c1)-c1ccccc1] | – |
| 54% | 16.8 µM | – | Cc1ccc(CCC2CCN(C(=O)CN3CCCC3C(=O)O)CC2)cc1 (centres unmarked) [Compound 4] | – |
| – | – | 0.2 µM | CC(C)C[C@H](N[C@@H](Cc1cncn1Cc1cc(Cl)cc(Cl)c1)C(=O)O)C(=O)O [MLN-4760, reference compound] | IC50 ([2]; known selective ACE2 inhibitor): 0.00044 µM; %inh_Ref EN300-22203532, Plate 1 ([1]; primary screen QC, 2.5 nM, n = 4, plate 1): 69.9%; %inh_Ref EN300-22203532, Plate 2 ([1]; primary screen QC, 2.5 nM, n = 4, plate 2): 72.2%; IC50 [3]: 0.0009 to 0.0025 µM |
| 52.1% | 269 µM | – | O=C(NC1CN(c2ccccc2)C1=O)c1ncccc1O (centres unmarked) [Compound 7] | – |
